Where no end group is shown, it is not given here.
Tests used:
purified HLA DRB1 *0101 = purified HLA DRB1 *0101 (Homo sapiens, UniProt P01903+P01911, A100R/D57E/F55L/F60I/F76Y/I96L/L162R/M171V/P40L/Q125E/R42F/V115G/Y59C); test: IC50nM to purified HLA | DRB1 *0101
Procedure: (§1) Table printed on a drawing sheet, FIG. 1
(§2) Head of the field: IC50nM to purified HLA | DRB1 *0101
(§3) First copying reader's note: The comma is the decimal sign and the point a thousands separator (e.g. 21.831); some values are printed bold or italic and some SEQ ID NOs underlined, with no legend on the sheet.
(§4) Where the first naming reader finds the target: head: IC50nM to purified HLA | DRB1 *0101

purified HLA DRB1 *0301 = purified HLA DRB1 *0301 (Homo sapiens, UniProt P01903+P01911, A100K/A102G/A103R/A169T/F55Y/I96L/K41T/L162R/M171V/P40S/Q125H/Q178H/Q39Y/R42S/S66N/T106N/T262R/W38E/Y61H); test: IC50nM to purified HLA | DRB1 *0301
Sequence of purified HLA DRB1 *0301 (P01903 26-254 limits assumed, other chains not shown): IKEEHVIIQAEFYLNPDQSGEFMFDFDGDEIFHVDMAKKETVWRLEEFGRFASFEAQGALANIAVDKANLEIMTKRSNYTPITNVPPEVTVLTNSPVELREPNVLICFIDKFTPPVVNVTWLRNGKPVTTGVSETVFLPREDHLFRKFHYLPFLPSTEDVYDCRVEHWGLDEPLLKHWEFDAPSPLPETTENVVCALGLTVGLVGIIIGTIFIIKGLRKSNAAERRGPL
Procedure: as §1
(§5) Head of the field: IC50nM to purified HLA | DRB1 *0301
as §3
(§6) Where the first naming reader finds the target: head: IC50nM to purified HLA | DRB1 *0301

purified HLA DRB1 *0401 = purified HLA DRB1 *0401 (Homo sapiens, UniProt P01903+P01911, A100K/A169T/F76Y/I96L/K127E/L162R/M171V/N62H/P40V/Q125Y/R42H/S133A/S149N/S66Y/V115G/V209L/W38E); test: IC50nM to purified HLA | DRB1 *0401
Procedure: as §1
Head of the field: IC50nM to purified HLA | DRB1 *0401
as §3
Where the first naming reader finds the target: head: IC50nM to purified HLA | DRB1 *0401

purified HLA DRB1 *0404 = purified HLA DRB1 *0404 (Homo sapiens, UniProt P01903+P01911, A100R/A169T/F76Y/I96L/K127E/L162R/M171V/N62H/P40V/Q125Y/R42H/S133A/S149N/S66Y/V209L/W38E); test: IC50nM to purified HLA | DRB1 *0404
Procedure: as §1
(§7) Head of the field: IC50nM to purified HLA | DRB1 *0404
as §3
(§8) Where the first naming reader finds the target: head: IC50nM to purified HLA | DRB1 *0404

purified HLA DRB1 *0405 = purified HLA DRB1 *0405 (Homo sapiens, UniProt P01903+P01911, A100R/A169T/D86S/F76Y/I96L/K127E/L162R/M171V/N62H/P40V/Q125Y/R42H/S133A/S149N/S66Y/V115G/V209L/W38E); test: IC50nM to purified HLA | DRB1 *0405
Procedure: as §1
(§9) Head of the field: IC50nM to purified HLA | DRB1 *0405
as §3
(§10) Where the first naming reader finds the target: head: IC50nM to purified HLA | DRB1 *0405

purified HLA DRB1 *0701 = purified HLA DRB1 *0701 (Homo sapiens, UniProt P01903+P01911, A100R/A102G/A103Q/D57E/D86V/E43K/F76Y/K127E/L162R/M171V/P40G/Q125H/Q99D/R33Q/R42Y/R54Q/S133A/S66F/T210M/V115G/Y107V/Y59L/Y89S); test: IC50nM to purified HLA | DRB1 *0701
Procedure: as §1
(§11) Head of the field: IC50nM to purified HLA | DRB1 *0701
as §3
(§12) Where the first naming reader finds the target: head: IC50nM to purified HLA | DRB1 *0701

purified HLA DRB1 *0802 = purified HLA DRB1 *0802 (Homo sapiens, UniProt P01903+P01911, A100R/A103L/A169T/F76Y/H45Y/I96F/K41T/L162R/M171V/P40S/Q125H/Q178H/Q39Y/Q99D/R218S/R42G/S66Y/V115G/W38E); test: IC50nM to purified HLA | DRB1 *0802
Procedure: as §1
(§13) Head of the field: IC50nM to purified HLA | DRB1 *0802
as §3
(§14) Where the first naming reader finds the target: head: IC50nM to purified HLA | DRB1 *0802

purified HLA DRB1 *0901 = purified HLA DRB1 *0901 (Homo sapiens, UniProt P01903+P01911, A100R/A103E/D57H/D86V/F55Y/F60I/F76Y/I96F/K127E/L162R/M171V/P40D/Q125H/Q99R/R33Q/R42F/S133A/S66N/T210M/V115G/W38K/Y107V/Y59G/Y89S); test: IC50nM to purified HLA | DRB1 *0901
Procedure: as §1
Head of the field: IC50nM to purified HLA | DRB1 *0901
as §3
Where the first naming reader finds the target: head: IC50nM to purified HLA | DRB1 *0901

purified HLA DRB1 *1101 = purified HLA DRB1 *1101 (Homo sapiens, UniProt P01903+P01911, A100R/A169T/A87E/I96F/K41T/L162R/M171V/P40S/Q125H/Q178H/Q39Y/Q99D/R42S/S66Y/T262R/V115G/W38E); test: IC50nM to purified HLA | DRB1 *1101
Sequence of purified HLA DRB1 *1101 (P01903 26-254 limits assumed, other chains not shown): as above
Procedure: as §1
Head of the field: IC50nM to purified HLA | DRB1 *1101
as §3
Where the first naming reader finds the target: head: IC50nM to purified HLA | DRB1 *1101

purified HLA DRB1 *1302 = purified HLA DRB1 *1302 (Homo sapiens, UniProt P01903+P01911, A100E/A169T/K41T/L162R/M171V/P40S/Q125H/Q178H/Q39Y/Q99D/R42S/S66N/T262R/V115G/W38E/Y61H); test: IC50nM to purified HLA | DRB1 *1302
Sequence of purified HLA DRB1 *1302 (P01903 26-254 limits assumed, other chains not shown): as above
Procedure: as §1
(§15) Head of the field: IC50nM to purified HLA | DRB1 *1302
as §3
(§16) Where the first naming reader finds the target: head: IC50nM to purified HLA | DRB1 *1302

purified HLA DRB1 *1501 = purified HLA DRB1 *1501 (Homo sapiens, UniProt P01903+P01911); test: IC50nM to purified HLA | DRB1 *1501
Procedure: as §1
(§17) Head of the field: IC50nM to purified HLA | DRB1 *1501
as §3
(§18) Where the first naming reader finds the target: head: IC50nM to purified HLA | DRB1 *1501

purified HLA DRB4 *0101 = purified HLA DRB4 *0101 (Homo sapiens, UniProt P01903+P13762, G164S); test: IC50nM to purified HLA | DRB4 *0101
Sequence of purified HLA DRB4 *0101 (P01903 26-254 limits assumed): as the sequence (P01903 26-254 limits assumed, other chains not shown) above
Sequence of purified HLA DRB4 *0101 (P13762 whole entry G164S): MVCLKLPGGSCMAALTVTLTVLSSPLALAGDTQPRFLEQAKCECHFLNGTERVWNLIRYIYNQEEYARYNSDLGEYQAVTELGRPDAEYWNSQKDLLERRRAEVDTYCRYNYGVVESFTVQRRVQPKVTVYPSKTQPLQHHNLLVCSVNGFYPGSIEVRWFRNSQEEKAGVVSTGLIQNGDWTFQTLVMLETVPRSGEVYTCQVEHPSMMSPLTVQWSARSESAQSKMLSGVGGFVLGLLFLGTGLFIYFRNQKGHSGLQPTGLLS
Procedure: as §1
(§19) Head of the field: IC50nM to purified HLA | DRB4 *0101
as §3
(§20) Where the first naming reader finds the target: head: IC50nM to purified HLA | DRB4 *0101

purified HLA DRB5 *0101 = purified HLA DRB5 *0101 (Homo sapiens, UniProt P01903+Q30154); test: IC50nM to purified HLA | DRB5 *0101
Procedure: as §1
Head of the field: IC50nM to purified HLA | DRB5 *0101
as §3
Where the first naming reader finds the target: head: IC50nM to purified HLA | DRB5 *0101

HLA DRB1 *0101 = HLA DRB1 *0101 (Homo sapiens, UniProt P01903+P01911, A100R/D57E/F55L/F60I/F76Y/I96L/L162R/M171V/P40L/Q125E/R42F/V115G/Y59C); test: IC50nM to purified HLA | DRB1 *0101
Procedure: (§21) Table printed on a drawing sheet, FIG. 1 (contd.)
as §2
(§22) First copying reader's note: Continued from an earlier sheet of FIG. 1; decimal commas as printed, analog names encode substituted residues and positions, and some values are printed in italics or bold and some SEQ ID NOs underlined without a legend on this sheet.
as §4

HLA DRB1 *0301 = HLA DRB1 *0301 (Homo sapiens, UniProt P01903+P01911, A100K/A102G/A103R/A169T/F55Y/I96L/K41T/L162R/M171V/P40S/Q125H/Q178H/Q39Y/R42S/S66N/T106N/T262R/W38E/Y61H); test: IC50nM to purified HLA | DRB1 *0301
Sequence of HLA DRB1 *0301 (P01903 26-254 limits assumed, other chains not shown): as the sequence (P01903 26-254 limits assumed, other chains not shown) above
Procedure: as §21, §5, §22, §6

HLA DRB1 *0701 = HLA DRB1 *0701 (Homo sapiens, UniProt P01903+P01911, A100R/A102G/A103Q/D57E/D86V/E43K/F76Y/K127E/L162R/M171V/P40G/Q125H/Q99D/R33Q/R42Y/R54Q/S133A/S66F/T210M/V115G/Y107V/Y59L/Y89S); test: IC50nM to purified HLA | DRB1 *0701
Procedure: as §21, §11, §22, §12

HLA DRB1 *0802 = HLA DRB1 *0802 (Homo sapiens, UniProt P01903+P01911, A100R/A103L/A169T/F76Y/H45Y/I96F/K41T/L162R/M171V/P40S/Q125H/Q178H/Q39Y/Q99D/R218S/R42G/S66Y/V115G/W38E); test: IC50nM to purified HLA | DRB1 *0802
Procedure: as §21, §13, §22, §14

HLA DRB4 *0101 = HLA DRB4 *0101 (Homo sapiens, UniProt P01903+P13762, G164S); test: IC50nM to purified HLA | DRB4 *0101
Sequence of HLA DRB4 *0101 (P01903 26-254 limits assumed): as the sequence (P01903 26-254 limits assumed, other chains not shown) above
Sequence of HLA DRB4 *0101 (P13762 whole entry G164S): as the sequence (P13762 whole entry G164S) above
Procedure: as §21, §19, §22, §20

HLA DRB1 *1501 = HLA DRB1 *1501 (Homo sapiens, UniProt P01903+P01911); test: IC50nM to purified HLA | DRB1 *1501
Procedure: as §21, §17, §22, §18

HLA DRB1 *0404 = HLA DRB1 *0404 (Homo sapiens, UniProt P01903+P01911, A100R/A169T/F76Y/I96L/K127E/L162R/M171V/N62H/P40V/Q125Y/R42H/S133A/S149N/S66Y/V209L/W38E); test: IC50nM to purified HLA | DRB1 *0404
Procedure: as §21, §7, §22, §8

HLA DRB1 *0405 = HLA DRB1 *0405 (Homo sapiens, UniProt P01903+P01911, A100R/A169T/D86S/F76Y/I96L/K127E/L162R/M171V/N62H/P40V/Q125Y/R42H/S133A/S149N/S66Y/V115G/V209L/W38E); test: IC50nM to purified HLA | DRB1 *0405
Procedure: as §21, §9, §22, §10

HLA DRB1 *1302 = HLA DRB1 *1302 (Homo sapiens, UniProt P01903+P01911, A100E/A169T/K41T/L162R/M171V/P40S/Q125H/Q178H/Q39Y/Q99D/R42S/S66N/T262R/V115G/W38E/Y61H); test: IC50nM to purified HLA | DRB1 *1302
Sequence of HLA DRB1 *1302 (P01903 26-254 limits assumed, other chains not shown): as the sequence (P01903 26-254 limits assumed, other chains not shown) above
Procedure: as §21, §15, §22, §16

Compound	IC50 (purified HLA DRB1 *0101)	IC50 (purified HLA DRB1 *0401)	IC50 (purified HLA DRB1 *0404)	IC50 (purified HLA DRB1 *0405)	IC50 (purified HLA DRB1 *0701)	IC50 (purified HLA DRB1 *0901)	IC50 (purified HLA DRB1 *1101)	IC50 (purified HLA DRB1 *1302)	IC50 (purified HLA DRB1 *1501)	IC50 (purified HLA DRB4 *0101)	IC50 (purified HLA DRB5 *0101)	IC50 (HLA DRB1 *0301)	further results
CC(C)C[C@H](NC(=O)[C@@H](NC(=O)[C@H](Cc1c[nH]c2ccccc12)NC(=O)[C@H](C)NC(=O)[C@H](C)NC(=O)[C@@H](NC(=O)[C@H](Cc1ccccc1)NC(=O)[C@H](CCCCN)NC(=O)[C@H](C)N)C(C)C)[C@@H](C)O)C(=O)N[C@@H](CCCCN)C(=O)N[C@@H](C)C(=O)N[C@@H](C)C(=O)N[C@@H](C)C(=O)O [SEQ ID NO: 3]	4 nM	1.4 nM	0.79 nM	32 nM	97 nM	50 nM	9.1 nM	367 nM	37 nM	447 nM	19 nM		IC50 (purified HLA DRB1 *0301): 289 nM; IC50 (purified HLA DRB1 *0802): 9.5 nM
AAAFFVAAFTLKADA [SEQ ID NO: 18]	43 nM	4.5 nM	6.1 nM	8.4 nM		113 nM	57 nM		66 nM	12500 nM	9.4 nM		
AAAFFVAAWTLKAAA [SEQ ID NO: 11]	5.7 nM	2.4 nM	7.3 nM	31 nM	74 nM	31 nM	27 nM	2810 nM	32 nM	517 nM	9.9 nM		IC50 (purified HLA DRB1 *0301): 227 nM
AAAFFVAAWTLKADA [SEQ ID NO: 16]	7.2 nM	5.3 nM	2.7 nM	22 nM	91 nM	32 nM	65 nM	7050 nM	64 nM				IC50 (purified HLA DRB1 *0802): 20 nM
AAAIFVAAWTLKAAA [SEQ ID NO: 68]												393 nM	IC50 (HLA DRB1 *0101): 4 nM; IC50 (HLA DRB1 *0701): 75 nM; IC50 (HLA DRB1 *0802): 14 nM; IC50 (HLA DRB4 *0101): 124 nM; IC50 (HLA DRB1 *1501): 7.3 nM; IC50 (HLA DRB1 *0404): 1.6 nM
AAANFVAAFTLKAEA [SEQ ID NO: 61]												1540 nM	IC50 (HLA DRB1 *0101): 8 nM; IC50 (HLA DRB1 *0405): 12 nM; IC50 (HLA DRB1 *0802): 14 nM; IC50 (HLA DRB4 *0101): 492 nM; IC50 (HLA DRB1 *1302): 1570 nM
AAAQFVAAWTLHAAA [SEQ ID NO: 64]												187 nM	IC50 (HLA DRB1 *0405): 13 nM; IC50 (HLA DRB1 *1302): 1120 nM; IC50 (HLA DRB1 *1501): 13 nM
